Where two headings read alike, the source gives them in different places.
Tests used:
hEP2 [1] = molecular target: T1, hEP2 (Homo sapiens, UniProt P43116); experiment: hEP2 flipr functional assay; format: cell-based
Source text: (§1) U.S. patent application Ser. No. 11/553,143, filed on Oct. 26, 2006, describes the methods used to obtain the in vitro data in the table below.

hEP2 [2] = molecular target: T1, hEP2; experiment: hEP2 cAMP functional assay; format: cell-based
Source text: as §1

hEP2 [3] = molecular target: T1, hEP2; experiment: hEP2 binding (Ki)
Source text: as §1

hEP4 [4] = molecular target: T2, hEP4 (Homo sapiens, UniProt P35408); experiment: hEP4 flipr functional assay; format: cell-based
Source text: as §1

hEP4 [5] = molecular target: T2, hEP4; experiment: hEP4 binding (Ki)
Source text: as §1

hEP1 = molecular target: T3, hEP1 (Homo sapiens, UniProt P34995); experiment: Other receptors: hEP1; format: cell-based
T3 sequence (P34995 1-402): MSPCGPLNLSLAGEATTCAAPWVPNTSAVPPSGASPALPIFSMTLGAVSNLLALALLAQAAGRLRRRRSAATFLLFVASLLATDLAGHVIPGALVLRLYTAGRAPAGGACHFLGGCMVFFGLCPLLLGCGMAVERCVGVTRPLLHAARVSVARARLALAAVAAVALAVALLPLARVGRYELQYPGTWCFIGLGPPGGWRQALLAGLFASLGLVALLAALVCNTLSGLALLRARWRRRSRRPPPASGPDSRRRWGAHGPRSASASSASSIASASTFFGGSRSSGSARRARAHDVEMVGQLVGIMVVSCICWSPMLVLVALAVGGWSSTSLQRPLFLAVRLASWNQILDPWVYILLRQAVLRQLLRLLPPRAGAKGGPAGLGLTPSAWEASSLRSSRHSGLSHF
Source text: as §1

hEP3 = molecular target: T4, hEP3 (Homo sapiens, UniProt P43115); experiment: Other receptors: hEP3 / hEP3A; format: cell-based
T4 sequence (P43115 1-390): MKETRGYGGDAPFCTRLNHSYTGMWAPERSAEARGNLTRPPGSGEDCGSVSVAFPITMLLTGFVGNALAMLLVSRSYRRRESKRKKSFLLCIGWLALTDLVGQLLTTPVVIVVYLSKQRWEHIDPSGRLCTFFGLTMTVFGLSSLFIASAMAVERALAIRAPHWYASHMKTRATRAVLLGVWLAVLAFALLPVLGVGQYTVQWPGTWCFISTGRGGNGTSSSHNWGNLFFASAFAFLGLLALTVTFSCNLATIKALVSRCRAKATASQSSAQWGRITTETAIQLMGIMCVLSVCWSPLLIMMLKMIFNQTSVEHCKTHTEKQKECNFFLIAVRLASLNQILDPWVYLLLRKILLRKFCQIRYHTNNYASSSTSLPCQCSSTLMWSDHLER
Source text: as §1

hTP = molecular target: T5, hTP (Homo sapiens, UniProt P21731); experiment: Other receptors: hTP; format: cell-based; conditions: the 2nd table
T5 sequence (P21731 1-343): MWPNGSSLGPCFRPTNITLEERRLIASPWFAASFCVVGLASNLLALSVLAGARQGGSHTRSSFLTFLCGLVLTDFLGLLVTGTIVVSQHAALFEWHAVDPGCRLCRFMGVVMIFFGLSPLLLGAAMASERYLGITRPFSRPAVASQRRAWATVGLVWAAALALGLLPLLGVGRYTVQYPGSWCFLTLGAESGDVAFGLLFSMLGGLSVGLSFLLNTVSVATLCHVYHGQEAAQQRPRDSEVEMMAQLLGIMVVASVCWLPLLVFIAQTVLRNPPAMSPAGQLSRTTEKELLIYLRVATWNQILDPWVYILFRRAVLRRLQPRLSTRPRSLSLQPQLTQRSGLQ
Source text: as §1

hDP = molecular target: T6, hDP (Homo sapiens, UniProt Q13258); experiment: Other receptors: hDP; format: cell-based
T6 sequence (Q13258 1-359): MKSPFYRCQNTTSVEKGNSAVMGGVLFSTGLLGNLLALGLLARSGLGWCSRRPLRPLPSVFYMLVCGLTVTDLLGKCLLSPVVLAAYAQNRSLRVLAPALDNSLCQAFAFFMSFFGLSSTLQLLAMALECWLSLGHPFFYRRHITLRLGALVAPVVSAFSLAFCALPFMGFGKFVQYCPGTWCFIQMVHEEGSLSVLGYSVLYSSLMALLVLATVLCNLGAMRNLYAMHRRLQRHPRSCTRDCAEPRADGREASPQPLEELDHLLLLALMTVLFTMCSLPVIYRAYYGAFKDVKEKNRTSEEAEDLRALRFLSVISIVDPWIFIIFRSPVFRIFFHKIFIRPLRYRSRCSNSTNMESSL
Source text: as §1

[6] = the 2nd table, read-out: hEP2 flipr EC50
[7] = the 2nd table, read-out: hEP2 cAMP EC50
[8] = the 2nd table, read-out: hEP2 Ki
[9] = the 2nd table, read-out: Other Receptors hEP3
[10] = the 3rd table, read-out: EP2 data flipr EC50
[11] = the 3rd table, read-out: EP2 data cAMP EC50
[12] = the 3rd table, read-out: EP2 data Ki
[13] = the 3rd table, read-out: EP4 data flipr EC50
[14] = the 3rd table, read-out: EP4 data KI
[15] = the 3rd table, read-out: Other Receptors (ED50 in nM) hEP1
[16] = the 3rd table, read-out: Other Receptors (ED50 in nM) hEP3A
[17] = the 3rd table, read-out: Other Receptors (ED50 in nM) hDP

T2 sequence (P35408 whole entry): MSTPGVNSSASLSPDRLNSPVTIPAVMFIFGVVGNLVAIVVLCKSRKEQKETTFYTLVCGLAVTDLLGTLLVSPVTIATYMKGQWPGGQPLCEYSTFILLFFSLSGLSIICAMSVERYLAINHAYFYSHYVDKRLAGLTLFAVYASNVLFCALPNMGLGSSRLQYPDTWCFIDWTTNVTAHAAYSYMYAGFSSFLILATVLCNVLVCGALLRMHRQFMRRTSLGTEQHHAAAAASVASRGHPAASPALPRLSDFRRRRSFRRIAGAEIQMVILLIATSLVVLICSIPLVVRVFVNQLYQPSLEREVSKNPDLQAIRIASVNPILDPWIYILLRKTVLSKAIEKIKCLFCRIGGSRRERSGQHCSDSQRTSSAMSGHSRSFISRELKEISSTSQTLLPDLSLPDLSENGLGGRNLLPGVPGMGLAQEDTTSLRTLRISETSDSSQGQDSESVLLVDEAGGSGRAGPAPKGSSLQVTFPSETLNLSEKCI
T1 sequence (P43116 whole entry): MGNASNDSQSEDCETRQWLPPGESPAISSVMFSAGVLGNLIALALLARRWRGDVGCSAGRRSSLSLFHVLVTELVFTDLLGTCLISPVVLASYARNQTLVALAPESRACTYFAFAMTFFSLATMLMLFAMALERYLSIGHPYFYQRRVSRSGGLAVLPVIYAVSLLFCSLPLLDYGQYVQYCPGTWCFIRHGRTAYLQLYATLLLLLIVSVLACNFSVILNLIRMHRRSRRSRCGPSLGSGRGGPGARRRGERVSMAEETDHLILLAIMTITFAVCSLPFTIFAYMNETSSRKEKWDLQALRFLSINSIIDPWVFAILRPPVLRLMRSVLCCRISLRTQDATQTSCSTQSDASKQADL

| EC50 (hEP2 [1]; [6]) | EC50 (hEP2 [2]; [7]) | Ki (hEP2 [3]; [8]) | EC50 (hEP4 [4]; the 2nd table, read-out: hEP4 flipr EC50) | Ki (hEP4 [5]; the 2nd table, read-out: hEP4 Ki) | EC50 (hEP1; the 2nd table, read-out: Other Receptors hEP1) | EC50 (hEP3; [9]) | EC50 (hTP) | EC50 (hDP; the 2nd table, read-out: Other Receptors hDP) | EC50 (hEP2 [1]; [10]) | EC50 (hEP2 [2]; [11]) | Ki (hEP2 [3]; [12]) | EC50 (hEP4 [4]; [13]) | Ki (hEP4 [5]; [14]) | EC50 (hEP1; [15]) | EC50 (hEP3; [16]) | EC50 (hDP; [17]) | SMILES |
| --- | --- | --- | --- | --- | --- | --- | --- | --- | --- | --- | --- | --- | --- | --- | --- | --- | --- |
| 3410 nM | 8 nM | 39 nM | 4820 nM | 1450 nM | 5180 nM | 7210 nM | > 10000 nM |  |  |  |  |  |  |  |  |  | COCc1cc(Cl)cc(OC[C@@H]2[C@@H](C/C=C\CCCC(=O)O)[C@H](Cl)C[C@H]2O)c1 [(Z)-7-[(1R,2S,3R,5R)-5-Chloro-2-(3-chloro-5-methoxymethyl-phenoxymethyl)-3-hydroxy-cyclopentyl]-hept-5-enoic acid] |
| 644 nM | 7 nM | 107 nM |  |  |  | 8830 nM | > 10000 nM | > 10000 nM |  |  |  |  |  |  |  |  | O=C(O)CCC/C=C\C[C@@H]1[C@@H](COc2cc(Cl)cc(CCO)c2)[C@H](O)C[C@H]1Cl [(Z)-7-{(1R,2S,3R,5R)-5-Chloro-2-[3-chloro-5-(2-hydroxyethyl)-phenoxymethyl]-3-hydroxy-cyclopentyl}-hept-5-enoic acid] |
|  |  |  |  |  |  |  |  |  | 33 nM | 0.4 nM | 6 nM | > 10000 nM | 471 nM | 17900 nM | 6520 nM |  | CCCc1cccc(OC[C@@H]2[C@@H](CCCc3ccc(C(=O)O)s3)[C@H](Cl)C[C@H]2O)c1 [5-(3-((1R,2S,3R,5R)-5-chloro-3-hydroxy-2-((3-propylphenoxy)methyl)cyclopentyl)propyl)thiophene-2-carboxylic acid] |

The next lines start with the compound.

| SMILES | EC50 (hEP2 [1]; [6]) | EC50 (hEP2 [2]; [7]) | Ki (hEP2 [3]; [8]) | EC50 (hEP4 [4]; the 2nd table, read-out: hEP4 flipr EC50) | Ki (hEP4 [5]; the 2nd table, read-out: hEP4 Ki) | EC50 (hEP1; the 2nd table, read-out: Other Receptors hEP1) | EC50 (hEP3; [9]) | EC50 (hTP) | EC50 (hDP; the 2nd table, read-out: Other Receptors hDP) | EC50 (hEP2 [1]; [10]) | EC50 (hEP2 [2]; [11]) | Ki (hEP2 [3]; [12]) | EC50 (hEP4 [4]; [13]) | Ki (hEP4 [5]; [14]) | EC50 (hEP1; [15]) | EC50 (hEP3; [16]) | EC50 (hDP; [17]) |
| --- | --- | --- | --- | --- | --- | --- | --- | --- | --- | --- | --- | --- | --- | --- | --- | --- | --- |
| CCc1cccc(OC[C@@H]2[C@@H](CCCc3ccc(C(=O)O)s3)[C@H](Cl)C[C@H]2O)c1 [5-(3-((1R,2S,3R,5R)-5-chloro-2-((3-ethylphenoxy)methyl)-3-hydroxycyclopentyl)propyl)thiophene-2-carboxylic acid] |  |  |  |  |  |  |  |  |  | 447 nM | 0.4 nM | 4 nM | 6740 nM | 214 nM | 31500 nM | 3570 nM | 4440 nM |
| O=C(O)c1ccc(CCC[C@@H]2[C@@H](COc3cc(F)cc(F)c3)[C@H](O)C[C@H]2Cl)s1 [5-(3-((1R,2S,3R,5R)-5-chloro-2-((3,5-difluorophenoxy)methyl)-3-hydroxycyclopentyl)propyl)thiophene-2-carboxylic acid] |  |  |  |  |  |  |  |  |  | 216 nM | 0.3 nM | 3 nM | 5290 nM | 1280 nM |  | 4140 nM | 12100 nM |
| O=C(O)c1ccc(CCC[C@@H]2[C@@H](COc3cccc4ccccc34)[C@H](O)C[C@H]2Cl)s1 [5-(3-((1R,2S,3R,5R)-5-chloro-3-hydroxy-2-((naphthalen-1-yloxy)methyl)cyclopentyl)propyl)thiophene-2-carboxylic acid] |  |  |  |  |  |  |  |  |  | 949 nM | 0.7 nM | 5.5 nM | > 10000 nM | 114 nM |  | 4030 nM | 4150 nM |

Reference: patent US8039496B2, “Therapeutic compounds” (Allergan, Inc., priority 2007, dated 2011)
